Tests used:
[1] = target: hGYS2 enzyme (recombinant hGYS2/GN1 protein) (Homo sapiens (Human), UniProt P54840); test: GYS2 coupled enzyme assay (PK/LDH); assay type: biochemical; conditions: geometric mean of at least 2 assay runs on separate days, read-out: Avg_IC50
In short: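 Read-out: NADH loss at 340 nm, read each minute for 10 min, slope normalized to controls, duplicate % inhibition fit to Hill (0–100). Enzyme: 200 nM hGYS2/GN1; substrate 2 mM UDP-glucose plus 0.2% glycogen and 2 mM G6P; pH 7.5 Tris, 2.5% DMSO.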

[2] = target: hGYS1 enzyme (recombinant hGYS1/GN1 protein) (Homo sapiens (Human), UniProt P13807); test: GYS1 coupled enzyme assay (PK/LDH); assay type: biochemical; conditions: hGYS1/GN1 50 nM, UDP-Glucose 0.8 mM, G6P 1 mM; geometric mean of at least 2 runs
hGYS1 enzyme (recombinant hGYS1/GN1 protein), sequence (P13807 whole entry): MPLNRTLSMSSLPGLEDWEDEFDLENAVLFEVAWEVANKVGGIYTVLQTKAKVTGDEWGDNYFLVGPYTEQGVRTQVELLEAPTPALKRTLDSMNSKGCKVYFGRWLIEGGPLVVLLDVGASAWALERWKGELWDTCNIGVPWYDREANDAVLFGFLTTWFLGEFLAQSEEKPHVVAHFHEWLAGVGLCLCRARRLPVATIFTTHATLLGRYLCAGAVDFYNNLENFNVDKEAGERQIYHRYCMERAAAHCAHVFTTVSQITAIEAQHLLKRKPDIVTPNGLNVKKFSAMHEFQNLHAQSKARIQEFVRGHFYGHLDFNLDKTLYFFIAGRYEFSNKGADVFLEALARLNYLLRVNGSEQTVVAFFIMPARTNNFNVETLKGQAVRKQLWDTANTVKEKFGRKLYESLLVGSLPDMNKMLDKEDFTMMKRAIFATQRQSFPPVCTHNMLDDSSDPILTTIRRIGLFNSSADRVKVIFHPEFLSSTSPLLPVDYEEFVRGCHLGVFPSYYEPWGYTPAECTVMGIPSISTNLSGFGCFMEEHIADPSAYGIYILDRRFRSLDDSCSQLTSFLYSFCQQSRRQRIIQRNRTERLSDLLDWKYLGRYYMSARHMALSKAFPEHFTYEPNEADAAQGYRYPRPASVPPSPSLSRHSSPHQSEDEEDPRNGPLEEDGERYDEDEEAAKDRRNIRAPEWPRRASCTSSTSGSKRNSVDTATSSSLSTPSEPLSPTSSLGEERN
hGYS1 enzyme (recombinant hGYS1/GN1 protein), sequence (P46976 whole entry partner): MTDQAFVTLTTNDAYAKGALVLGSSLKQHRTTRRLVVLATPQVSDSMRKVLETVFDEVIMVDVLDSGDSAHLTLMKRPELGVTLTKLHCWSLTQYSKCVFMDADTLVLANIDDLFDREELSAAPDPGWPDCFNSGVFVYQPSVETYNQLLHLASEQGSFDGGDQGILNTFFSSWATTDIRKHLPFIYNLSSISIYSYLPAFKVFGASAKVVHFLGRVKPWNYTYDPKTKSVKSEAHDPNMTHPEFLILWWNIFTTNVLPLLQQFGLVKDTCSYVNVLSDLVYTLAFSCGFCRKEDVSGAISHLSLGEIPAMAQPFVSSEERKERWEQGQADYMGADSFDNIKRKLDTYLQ

[3] = system: hGYS1 enzyme / glycogen synthesis in HeLa cells; test: GYS1 cell based assay (glycogen synthesis, Glucose-glo); design: species or system human; conditions: 24 h incubation, 20 mM glucose, geometric mean of at least 2 runs
In short: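 HeLa cells starved 24 h in medium containing only 1× Glutamax were plated onto compound in medium with 20 mM glucose (1% DMSO final) for 24 h, 37 °C, 5% CO2. Acid lysates were Tris-quenched, glucoamylase-digested (pH 5.3, 1 h, 37 °C) and read by Glucose-glo luminescence. IC50 came from Hill fits, as geometric mean of ≥2 runs.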

hGYS2 enzyme (recombinant hGYS2/GN1 protein), sequence (P54840 whole entry): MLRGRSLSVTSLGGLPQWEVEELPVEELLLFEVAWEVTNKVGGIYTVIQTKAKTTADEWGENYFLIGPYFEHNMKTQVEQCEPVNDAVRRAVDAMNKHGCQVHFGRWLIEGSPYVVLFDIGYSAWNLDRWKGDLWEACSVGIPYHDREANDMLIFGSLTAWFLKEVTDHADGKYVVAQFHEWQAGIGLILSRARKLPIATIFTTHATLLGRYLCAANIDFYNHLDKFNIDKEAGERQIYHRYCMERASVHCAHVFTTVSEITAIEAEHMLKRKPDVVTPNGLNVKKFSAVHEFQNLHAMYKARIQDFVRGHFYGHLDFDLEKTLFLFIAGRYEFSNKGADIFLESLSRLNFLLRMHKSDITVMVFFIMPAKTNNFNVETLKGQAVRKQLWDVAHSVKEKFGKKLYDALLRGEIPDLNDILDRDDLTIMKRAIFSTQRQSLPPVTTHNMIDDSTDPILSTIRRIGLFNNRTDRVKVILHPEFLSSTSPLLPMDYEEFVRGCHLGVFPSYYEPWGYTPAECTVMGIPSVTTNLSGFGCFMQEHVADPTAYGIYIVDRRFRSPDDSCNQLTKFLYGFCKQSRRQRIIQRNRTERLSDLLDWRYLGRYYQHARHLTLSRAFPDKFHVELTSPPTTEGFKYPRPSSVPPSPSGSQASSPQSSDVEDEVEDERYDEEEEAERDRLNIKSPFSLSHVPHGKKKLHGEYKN
hGYS2 enzyme (recombinant hGYS2/GN1 protein), sequence (P46976 whole entry partner): as the sequence (P46976 whole entry partner) above

SMILES | IC50 [1] | IC50 [2] | IC50 [3] | IC50 ([3]; Homo sapiens, HeLa, 24 h)
CC(C)c1ccc(C(NC(=O)[C@@H]2C[C@@H](F)CN2C(=O)Cc2cnn[nH]2)c2ccn[nH]2)cc1F (single isomer, unassigned) [Compound 623, (2S,4R)-4-fluoro-N-[(R) or (S)-[3-fluoro-4-(propan-2-yl)phenyl](1H-pyrazol-5-yl)methyl]-1-[2-(1H-1,2,3-triazol-5-yl)acetyl]pyrrolidine-2-carboxamide] | > 100000 nM | 111 nM |  | 4070 nM
Cc1cc(C(NC(=O)[C@@H]2C[C@@H](F)CN2C(=O)Cc2c(C)nn(C)c2C)c2cccnc2N)ccc1C(C)C (single isomer, unassigned) [Compound 625, (2S,4R)-N-[(R) or (S)-(2-aminopyridin-3-yl)[3-methyl-4-(propan-2-yl)phenyl]methyl]-4-fluoro-1-[2-(1,3,5-trimethyl-1H-pyrazol-4-yl)acetyl]pyrrolidine-2-carboxamide] | > 100000 nM | 139 nM |  | 1140 nM
CC(C)c1ccc(C(NC(=O)[C@@H]2C[C@@H](F)CN2C(=O)Cc2ncco2)c2ccn[nH]2)nc1F (single isomer, unassigned) [Compound 630, (2S,4R)-4-fluoro-N-[(S) or (R)-[6-fluoro-5-(propan-2-yl)pyridin-2-yl](1H-pyrazol-5-yl)methyl]-1-[2-(1,3-oxazol-2-yl)acetyl]pyrrolidine-2-carboxamide] | > 100000 nM | 92 nM |  | 2130 nM
CC(C)c1ccc(C(NC(=O)[C@@H]2C[C@@H](F)CN2C(=O)Cc2cnn[nH]2)c2ccn3cncc3c2)nc1F (single isomer, unassigned) [Compound 631, (2S,4R)-4-fluoro-N-[(S) or (R)-[6-fluoro-5-(propan-2-yl)pyridin-2-yl]({imidazo[1,5-a]pyridin-7-yl})methyl]-1-[2-(1H-1,2,3-triazol-5-yl)acetyl]pyrrolidine-2-carboxamide] | > 100000 nM | 176 nM |  | 13600 nM
CC(C)c1ccc(C(NC(=O)[C@@H]2C[C@@H](F)CN2C(=O)Cc2cnn[nH]2)c2ccc3cn[nH]c3c2)nc1F (single isomer, unassigned) [Compound 632, (2S,4R)-4-fluoro-N-[(S) or (R)-[6-fluoro-5-(propan-2-yl)pyridin-2-yl](1H-indazol-6-yl)methyl]-1-[2-(1H-1,2,3-triazol-5-yl)acetyl]pyrrolidine-2-carboxamide] | > 100000 nM | 13 nM | 660 nM | 
COc1cccc(C(NC(=O)[C@@H]2C[C@@H](F)CN2C(=O)Cc2cnn[nH]2)c2ccc(C(C)C)c(F)n2)c1 (single isomer, unassigned) [Compound 651, (2S,4R)-4-fluoro-N-[(S) or (R)-[6-fluoro-5-(propan-2-yl)pyridin-2-yl](3-methoxyphenyl)methyl]-1-[2-(1H-1,2,3-triazol-5-yl)acetyl]pyrrolidine-2-carboxamide] | > 100000 nM | 77 nM |  | 1570 nM
CC(C)c1ccc(C(CC2CC2)NC(=O)[C@@H]2C[C@@H](F)CN2C(=O)Cc2cnn[nH]2)cc1F (single isomer, unassigned) [Compound 653, (2S,4R)-N-[(1S) or (1R)-2-cyclopropyl-1-[3-fluoro-4-(propan-2-yl)phenyl]ethyl]-4-fluoro-1-[2-(1H-1,2,3-triazol-5-yl)acetyl]pyrrolidine-2-carboxamide] | > 100000 nM | 262 nM |  | 3750 nM
CC(C)c1c(F)cc(C(NC(=O)[C@@H]2C[C@@H](F)CN2C(=O)Cc2cnn[nH]2)c2ccccc2)cc1F (single isomer, unassigned) [Compound 667, (2S,4R)-N-[(S) or (R)-[3,5-difluoro-4-(propan-2-yl)phenyl](phenyl)methyl]-4-fluoro-1-[2-(1H-1,2,3-triazol-5-yl)acetyl]pyrrolidine-2-carboxamide] | > 100000 nM | 23 nM |  | 290 nM
CC(C)c1c(F)cc(C(NC(=O)[C@@H]2C[C@@H](F)CN2C(=O)Cn2ccnn2)c2ccccc2)cc1F (single isomer, unassigned) [Compound 668, (2S,4R)-N-[(S) or (R)-[3,5-difluoro-4-(propan-2-yl)phenyl](phenyl)methyl]-4-fluoro-1-[2-(1H-1,2,3-triazol-1-yl)acetyl]pyrrolidine-2-carboxamide] | > 100000 nM | 25 nM |  | 320 nM
O=C(NC(c1ccccc1)c1ccc(C2CCC2)c(F)c1)[C@@H]1C[C@@H](F)CN1C(=O)Cc1cnn[nH]1 (single isomer, unassigned) [Compound 674, (2S,4R)-N-[(S) or (R)-(4-cyclobutyl-3-fluorophenyl) (phenyl)methyl]-4-fluoro-1-[2-(1H-1,2,3-triazol-5-yl)acetyl]pyrrolidine-2-carboxamide] | > 100000 nM | 96 nM |  | 710 nM
O=C(NC(c1ccccc1)c1ccc(C2CCC2)c(F)c1)[C@@H]1C[C@@H](F)CN1C(=O)Cn1cnnn1 (single isomer, unassigned) [Compound 675, (2S,4R)-N-[(S) or (R)-(4-cyclobutyl-3-fluorophenyl) (phenyl)methyl]-4-fluoro-1-[2-(1H-1,2,3,4-tetrazol-1-yl)acetyl]pyrrolidine-2-carboxamide] | > 100000 nM | 101 nM |  | 1130 nM
CCC(C)c1ccc(C(NC(=O)[C@@H]2C[C@@H](F)CN2C(=O)Cc2cnn[nH]2)c2ccccc2)cc1F (single isomer, unassigned) [Compound 676, (2S,4R)-N-[(R) or (S)-{4-[(2R) or (2S)-butan-2-yl]-3-fluorophenyl}(phenyl)methyl]-4-fluoro-1-[2-(1H-1,2,3-triazol-5-yl)acetyl]pyrrolidine-2-carboxamide] | > 100000 nM | 554 nM | 14000 nM | 
CCC(C)c1ccc(C(NC(=O)[C@@H]2C[C@@H](F)CN2C(=O)Cc2cnn[nH]2)c2ccccc2)cc1F (single isomer, unassigned) [Compound 677, (2S,4R)-N-[(S) or (R)-{4-[(2R) or (2S)-butan-2-yl]-3-fluorophenyl} (phenyl)methyl]-4-fluoro-1-[2-(1H-1,2,3-triazol-5-yl)acetyl]pyrrolidine-2-carboxamide] | > 100000 nM | 51 nM | 990 nM | 

Second part, the molecule after the results:

IC50 [1] | IC50 [2] | IC50 [3] | IC50 ([3]; Homo sapiens, HeLa, 24 h) | SMILES
> 100000 nM | 109 nM | 2390 nM |  | CC(C(=O)N1C[C@H](F)C[C@H]1C(=O)N[C@@H](c1ccccc1)c1ccc(C2(C)CC2)c(F)n1)n1cnc2ccccc21 (single isomer, unassigned) [Compound 587, (2S,4R)-1-((R) or (S)-2-(1H-benzo[d]imidazol-1-yl)propanoyl)-4-fluoro-N—((S)-(6-fluoro-5-(1-methylcyclopropyl)pyridin-2-yl)(phenyl)methyl)pyrrolidine-2-carboxamide]
> 100000 nM | 176 nM |  | 1590 nM | Cc1cc(C(NC(=O)[C@@H]2C[C@@H](F)CN2C(=O)Cc2cnn[nH]2)c2ccccc2)ncc1C(C)C (single isomer, unassigned) [Compound 604, (2S,4R)-4-fluoro-N-[(S) or (R)-[4-methyl-5-(propan-2-yl)pyridin-2-yl](phenyl)methyl]-1-[2-(1H-1,2,3-triazol-5-yl)acetyl]pyrrolidine-2-carboxamide]
> 100000 nM | 168 nM |  | 2130 nM | CC(C)c1cnc(C(NC(=O)[C@@H]2C[C@@H](F)CN2C(=O)Cc2cnn[nH]2)c2ccccc2)cc1F (single isomer, unassigned) [Compound 605, (2S,4R)-4-fluoro-N-[(S) or (R)-[4-fluoro-5-(propan-2-yl)pyridin-2-yl] (phenyl)methyl]-1-[2-(1H-1,2,3-triazol-5-yl)acetyl]pyrrolidine-2-carboxamide]
> 100000 nM | 333 nM |  | 3290 nM | Cc1nc(C(NC(=O)[C@@H]2C[C@@H](F)CN2C(=O)Cc2cnn[nH]2)c2ccccc2)ccc1C(C)C (single isomer, unassigned) [Compound 607, (2S,4R)-4-fluoro-N-[(S) or (R)-[6-methyl-5-(propan-2-yl)pyridin-2-yl](phenyl)methyl]-1-[2-(1H-1,2,3-triazol-5-yl)acetyl]pyrrolidine-2-carboxamide]
> 100000 nM | 225 nM |  | 1650 nM | Cc1nc(C(NC(=O)[C@@H]2C[C@@H](F)CN2C(=O)Cc2nnc(C(F)F)o2)c2ccccc2)ccc1C(C)C (single isomer, unassigned) [Compound 609, (2S,4R)-1-{2-[5-(difluoromethyl)-1,3,4-oxadiazol-2-yl]acetyl}-4-fluoro-N-[(S) or (R)-[6-methyl-5-(propan-2-yl)pyridin-2-yl](phenyl)methyl] pyrrolidine-2-carboxamide]
> 100000 nM | 547 nM |  | 5320 nM | CC(C)(C)c1ccc(C(NC(=O)[C@@H]2C[C@@H](F)CN2C(=O)Cc2cnn[nH]2)c2ccccc2)nc1 (single isomer, unassigned) [Compound 611, (2S,4R)-N-[(S) or (R)-(5-tert-butylpyridin-2-yl)(phenyl)methyl]-4-fluoro-1-[2-(1H-1,2,3-triazol-5-yl)acetyl]pyrrolidine-2-carboxamide]

From patent US11814367B2, “Inhibitors of glycogen synthase 1 (GYS1) and methods of use thereof” (Maze Therapeutics, Inc., priority 2021, dated 2023)
